{"source": "patent US7989466B2", "about": "“Methods to inhibit or augment an inflammatory response” (Cambridge Enterprise Limited, priority 1999, dated 2011)", "key": {"[1]": {"system": "chemokine receptors on THP-1 cells", "assay": "Binding to chemokine receptors on THP-1 cells", "parameters": "species or system human", "experimental": "In general, specific binding is calculated as the amount of labeled agent bound in the absence of cold competitor minus the amount of labeled agent bound in the presence of cold competitor. The amount of specific binding in the presence of varied amounts of cold competitor can be used to determine the association constant for the agent, as well as the number of binding sites on the cell for the agent, using, for example, Scatchard Analysis. The agent may be labeled by radiolabeling (e.g., iodination) or with a suitable biochemical tag (e.g., biotin) or by addition of a photoactivatable crosslinking group. Agents with an association constant lower than 100 μM (i.e., which bind more strongly than an agent with an association constant of 100 μM) and which have at least about 2,500, preferably at least about 10,000, and more preferably greater than 25,000, binding sites per cell for at least one cell type which expresses a chemokine receptor, fall under the scope of this invention. THP-1 cells have at least about 5,000 MCP-1 receptors/cell.\nFor example, monocytes are suspended in RPMI 1640 medium without bicarbonate containing 0.2% bovine serum albumin and 0.1% azide. Radiolabeled chemokine peptide is incubated with 1-2×10^6 cells, e.g., THP-1 cells, in the presence or absence of increasing concentrations of unlabeled chemokine (MCP-1, MCP-3, MCP-4, RANTES or MIP-1α) for 15 minutes at 37° C. in a 96-well plate in a final volume of 0.2 ml (e.g., PBS+0.5% FCS). After the incubation, 0.5 ml of ice-cold wash buffer (20 mM Tris, 0.5 M NaCl, pH 7.4) is added, and cells are collected onto a polyethyleneimine-treated Whatman GF/C filter using a Brandall cell harvester. Filters are washed with 4 ml of cold wash buffer, and the radioactivity bound to the filters is counted in a γ-counter.\nFor Scatchard analysis, the absorbance readings at 450 nm were calibrated, by reference to a standard curve in which known amounts of labeled peptide were coupled to derivatized sepharose beads (activated thiol-sepharose 4B; Sigma T8512) via the cysteine residue in each peptide. Briefly, known amounts (1 fmol to 1 pmol) of biotin-labeled peptide were incubated with 1 mg of activated thiol-sepharose beads in 100 μl of PBS at 37° C. for 1 hour. Free activated thiols were then blocked by addition of cysteine to a final concentration of 10 mM. The peptide-conjugated beads were then washed 5 times in PBS and treated exactly as for the cells described above. The absorbance at 450 nm obtained when a known amount of peptide was coupled to the beads was used to construct a standard curve which was used to convert the absorbance readings obtained with cells into number of molecules of labeled peptide which had bound."}, "[2]": {"system": "chemokine-induced THP-1 migration", "assay": "THP-1 trans-well migration assay, panel of chemokines (MCP-1, MIP1α, IL-8, SDF1α)", "type": "cell-based, human", "details": "for effect on THP-1 migration induced by the chemokine panel, in words: IL-8, SDF1α; for CC SPECIFICITY: average inhibitory ED50 versus SDF1 and IL8 divided by average inhibitory ED50 versus MCP-1 and MIP1α"}, "[3]": {"system": "IL8 induced THP-1 migration", "assay": "THP-1 trans-well migration assay, IL-8 as chemoattractant", "type": "cell-based, human", "details": "for % inhibition at 100 μM versus IL8, THP-1 migration: n.s. = no statistically significant inhibition", "experimental": "To determine whether an agent inhibits a chemokine-induced activity, such as macrophage recruitment, varying amounts of the agent are mixed with cells in the presence of a known chemoattractant. For example, a range of known concentrations of an agent, e.g., a chemokine peptide, is incubated with a defined number (e.g., 10^4-10^6) of human THP-1 monocyte cells in individual wells of the top compartment of a trans-well plate. Chemokine (such as MCP-1, MIP1α, IL8 or SDF-1α), at a concentration known to cause significant migration of THP-1 cells in the trans-well migration assay, is placed in the lower compartment (FIG. 1). Cells are then incubated at 37° C. for a period sufficient to allow migration, e.g., 4 hours. After incubation, the cells are gently removed from the top of the filter with a pipette, 20 μl of 20 mM EDTA in simple PBS is added into each top well, and incubated for 20 minutes at 4° C. The filter is carefully flushed with media using a gentle flow, and removed. A standard curve consisting of a two-fold dilution series of THP-1 cells (in 29 μl) is prepared to accurately quantify the number of cells that have migrated. Migrated cells are stained with 3 μl of MTT stock dye solution which is added directly into each well (5 mg/ml in RPMI-1640 without phenol red, Sigma Chemical Co.) and incubated at 37° C. for 4 hours. The media is carefully aspirated from each well, and the converted dye is solubilized by 20 μl of DMSO. Absorbance of converted dye is measured at a wavelength of 595 nm using an ELISA plate reader. The number of migrated cells in each well is then determined by interpolation of the standard curve (see also Imai et al., J. Biol. Chem., 272, 15036 (1997)).\nFor this assay, THP-1 cells were maintained at a density of 4×10^5 cells per ml in RPMI-1640 supplemented with 10% fetal calf serum+20 μM 2-mercaptoethanol. Chemotaxis was induced in a 96-well disposable chemotaxis chamber fitted with a […] polycarbonate filter (PVP free, ChemoTX, Neuroprobe Inc., Cabin John). Twenty-nine μl of chemoattractant (recombinant human chemokine; 50 ng/ml, i.e., 5.9 nM) or control (100 ng/ml TGFβ) was added to the lower compartment of each well. The framed filter was aligned with the holes in the corner of the filter frame and placed over the wells. Five×10^4 THP-1 cells in 25 μl of RPMI-1640 were added to the upper compartment. Peptides were dissolved in Milli Q water and then serially diluted in culture medium. In most cases, the serially diluted peptides were added to the upper compartment of the chemotaxis chamber. The chamber was incubated at 37° C. in a humidified atmosphere of 5% CO2 for 4 hours.\nAfter incubation, the cells were gently removed from the top of the filter with a pipette, 20 μl of 20 mM EDTA in PBS was added into each top well, and the mixture was incubated for 20 minutes at 4° C. The filter was then carefully flushed with media using a gentle flow, and removed. A standard curve was prepared to accurately quantify the number of THP-1 cells that had migrated. The curve was based on a two-fold dilution series of THP-1 cells (top standard 100,000 cells in 29 μl). Cells which had migrated, and in separate wells, the cells in the standards, were stained with 3 μl of MTT stock solution which was added directly into each well (5 mg/ml in RPMI 1640 without phenol red, Sigma Chemical Co.) and incubated at 37° C. for 4 hours. The media was carefully aspirated from each well, and the converted dye was solubilized by 20 μl of DMSO. Absorbance of converted dye was measured at a wavelength of 595 nm using an ELISA plate reader. The number of cells that had migrated in each well was determined by interpolation of the standard curve."}, "[4]": {"system": "SDF-1α induced THP-1 migration", "assay": "THP-1 trans-well migration assay, SDF-1α as chemoattractant", "type": "cell-based, human", "details": "for % inhibition at 100 μM versus SDF-1α, THP-1 migration: n.s. = no statistically significant inhibition", "summary_of_the_method": "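5×10^4 THP-1 cells with serially diluted peptide in upper chamber, 5 µm filter, recombinant human chemokine 50 ng/ml (5.9 nM) in lower chamber. Incubated 4 h at 37 °C. Migrated cells counted by MTT staining, A595 read against a THP-1 standard curve.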"}, "[5]": {"details": "n.s. = no statistically significant inhibition (p > 0.05)"}}, "note": "Like-named read-outs stand apart in the source and are kept apart here. Marks after values point to notes of the source that are not given here. Positions of bridges follow the written chain, without caps; N, C: chain ends. Non-standard residues stand in square brackets, D forms with d. Residues, ends and D or L forms follow the SMILES beside them. No end group written: not given here."}
{"compound": "CC[C@@H](C)[C@H]1NC(=O)[C@@H](CCC(N)=O)NC(=O)[C@H](N)CSSC[C@H](C(N)=O)NC(=O)[C@@H](CC(C)C)NC(=O)[C@@H](CC(=O)O)NC(=O)[C@H]2CCCN2C(=O)[C@@H](CCCCN)NC(=O)[C@@H](CCC(N)=O)NC(=O)[C@@H](CCCCN)NC(=O)[C@@H](Cc2c[nH]c3ccccc23)NC1=O", "note": "(H-[dC][dQ][dI][dW][dK][dQ][dK][dP][dD][dL][dC]-NH2; disulfide 1-11; N-terminus assumed)", "values": [{"measurement": "association constant for chemokine receptors on THP-1 cells", "setting": "[1]", "value": "100 to 500", "unit": "nM"}, {"measurement": "number of binding sites per cell, THP-1 cells", "setting": "[1]", "value": "about 150,000 per cell"}, {"measurement": "effect on THP-1 migration induced by the chemokine panel, in words", "setting": "[2]; MCP-1, MIP1α", "value": "inhibited THP-1 cell migration induced by MCP-1, MIP1α, IL-8, and SDF1, with very similar ED50s"}]}
{"compound": "C=CCCCCCCCCC(=O)N[C@H]1CCC(=O)NC1=O", "note": "[A-I (NR58.4), [3S]-3-(undec-10-enoylamino)piperidine-2,6-dione]", "values": [{"measurement": "EC50", "setting": "[3]; Homo sapiens, THP-1, read-out: ED50, IL-8 chemotaxis assay", "value": "< 0.01", "unit": "µM"}, {"measurement": "EC50", "setting": "[4]; Homo sapiens, THP-1, read-out: ED50, SDF1α chemotaxis assay", "value": 0.008, "unit": "µM"}]}
{"compound": "NCCCC[C@H](NC(=O)[C@H](CCC(N)=O)NC(=O)[C@@H](N)CCCCN)C(=O)O", "note": "[KQK]", "values": [{"measurement": "number of binding sites per cell, THP-1 cells", "setting": "[1]", "value": "about 15,000 per cell"}, {"measurement": "association constant for chemokine receptors on THP-1 cells", "setting": "[1]; range printed with mixed units", "value": "500 nM-1 μM"}, {"measurement": "ED50 versus IL8, inhibition of THP-1 migration", "setting": "[3]; [5]", "value": "n.s."}, {"measurement": "specificity for the cognate chemokine over all the other chemokines tested", "setting": "[2]; KQK MCP-1, SEE MIP1-α", "value": "more than 100 fold"}, {"measurement": "Chemokine antagonist", "setting": "[2]; active against at least one of IL-8, SDF-1α, MCP-1, MIP1α", "value": "+++++"}, {"measurement": "CC SPECIFICITY", "setting": "[2]", "value": ">100"}, {"measurement": "EC50", "setting": "[2]; footnote f, KQK MCP-1, SEE MIP1α, KLK SDF1, KEN IL8, read-out: ED50 of a tripeptide against the one chemokine it is highly specific for", "value": 6, "unit": "µM"}, {"measurement": "ED50 versus SDF-1α, inhibition of THP-1 migration", "setting": "[4]; [5]", "value": "n.s."}, {"measurement": "percentage inhibition of migration induced by SDF1α", "setting": "[4]; tripeptide at 100 μM, mean ± range, dash = no statistically significant reduction in migration", "value": "29 ± 1", "unit": "%"}]}
{"compound": "EICADPKQKWVQ [peptide 3(1-12)[MCP-1]]", "values": [{"measurement": "number of binding sites per cell, THP-1 cells", "setting": "[1]", "value": 1000, "unit": "per cell"}, {"measurement": "association constant (ka) for binding to THP-1 cells", "setting": "[1]; listed as Peptide 3", "value": "about 10 μM"}, {"measurement": "association constant (ka) for binding to THP-1 cells", "setting": "[1]; listed as peptide 3", "value": 7, "unit": "µM"}, {"measurement": "Kd", "setting": "[1]; read-out: affinity constant for binding to THP-1 cells in the presence of 100 μM peptide 2", "value": 8, "unit": "µM"}, {"measurement": "% inhibition at 100 μM versus IL8, THP-1 migration", "setting": "[3]", "value": 103, "unit": "%"}, {"measurement": "EC50", "setting": "[3]; n.s. = no statistically significant inhibition (p > 0.05), read-out: ED50 versus IL8, inhibition of THP-1 migration", "value": "14 ± 1", "unit": "µM"}, {"measurement": "% inhibition at 100 μM of migration induced by any of the chemokines tested", "setting": "[2]; 100 μM, THP-1", "value": "> 99", "unit": "%"}, {"measurement": "EC50", "setting": "[2]; average inhibitory ED50 for inhibition of THP-1 migration induced by each of the chemokines, read-out: AVERAGE ED50", "value": 10, "unit": "µM"}, {"measurement": "CC SPECIFICITY", "setting": "[2]", "value": 1.5}, {"measurement": "selectivity ratio (CC versus CXC chemokines)", "setting": "[2]; greater than 1 = greater inhibition of CC chemokines relative to CXC chemokines", "value": 1.5}, {"measurement": "% inhibition at 100 μM versus SDF-1α, THP-1 migration", "setting": "[4]", "value": 107, "unit": "%"}, {"measurement": "EC50", "setting": "[4]; n.s. = no statistically significant inhibition (p > 0.05), read-out: ED50 versus SDF-1α, inhibition of THP-1 migration", "value": 10, "unit": "µM"}]}
{"compound": "SYRRITSSKCPKEAV [peptide 2(1-15)[MCP-1]]", "values": [{"measurement": "AVERAGE ED50, peptide 2 family: estimated ka for binding to THP-1 cells", "setting": "[1]", "value": "2^e μM"}, {"measurement": "association constant (ka) for binding to THP-1 cells", "setting": "[1]", "value": 2, "unit": "µM"}, {"measurement": "number of binding sites per cell, THP-1 cells", "setting": "[1]", "value": "130,000 per cell"}, {"measurement": "association constant for chemokine receptors on THP-1 cells", "setting": "[1]; listed as peptide 2", "value": 250, "unit": "nM"}, {"measurement": "association constant for chemokine receptors on THP-1 cells", "setting": "[1]; listed as peptide 2(1-15)[MCP1]", "value": 300, "unit": "nM"}, {"measurement": "% inhibition at 100 μM versus IL8, THP-1 migration", "setting": "[3]", "value": "n.s."}, {"measurement": "ED50 versus IL8, inhibition of THP-1 migration", "setting": "[3]; [5]", "value": "n.s."}, {"measurement": "effect on THP-1 migration induced by the chemokine panel, in words", "setting": "[2]; MCP-1, MIP1α", "value": "no significant effect"}, {"measurement": "% inhibition at 100 μM versus SDF-1α, THP-1 migration", "setting": "[4]", "value": "n.s."}, {"measurement": "ED50 versus SDF-1α, inhibition of THP-1 migration", "setting": "[4]; [5]", "value": "n.s."}, {"measurement": "SDF1a ED-50", "setting": "[4]; ns = not significantly different from control", "value": "ns"}]}
